The values that follow come from ChEMBL document CHEMBL5518240 (J Med Chem, 2024).

Where only a bound is given, the exact number is not on record here.

Series [1] deals with CWR22R. In words: Reduction in c-Myc gene expression in AR positive human 22Rv1 cells assessed as reduction in mRNA level measured after 6 hrs by qRT-PCT analysis relative to control. The series is classed as functional, cell-based. To be noted: dose 0.1-1000 nM.
Series [2] concerns the target T1, Protein cereblon/CREB-binding protein (Homo sapiens, UniProt Q92793+Q96SW2). Put plainly: In vivo PROTAC activity at CBP/CRBN in human VCaP cells xenografted in SCID mouse assessed as reduction in CBP protein at 3 mg/kg, po measured after 3 hrs. On the set-up: scale not given: the % may be the effect or the level left. The series is classed as functional, organism-based. In general terms: In xenograft studies the graft and the host belong to different species.

The test system of series [3] is LNCaP. Put plainly: Reduction in c-Myc gene expression in AR positive human LNCaP cells assessed as reduction in mRNA level measured after 6 hrs by qRT-PCT analysis relative to control. The series is classed as functional, cell-based. To be noted: dose 0.1-1000 nM.
A short description of series [4]: Reduction in c-Myc gene expression in AR positive human LNCaP cells assessed as reduction in mRNA level at 10 nM measured after 6 hrs by qRT-PCT analysis relative to control. The series is classed as functional.
The target of series [5] is T1, Protein cereblon/CREB-binding protein. Put plainly: In vivo PROTAC activity at p300/CRBN in human VCaP cells xenografted in CB17 SCID mouse assessed as reduction in CBP protein at 3 mg/kg, po measured after 3 hrs. The series is classed as functional, organism-based. On the set-up: scale not given: the % may be the effect or the level left.
The nature of series [6]: Drug exposure in CB17 SCID mouse xenografted with human VCaP cells assessed compound concentration in tumor at 1 mg/kg, po measured after 24 hrs by LC-MS/MS analysis. To be noted: in vivo, BLD = below limit of detection. The series is classed as ADME, organism-based, Neoplasm.
Series [7] deals with T1, Protein cereblon/CREB-binding protein. In words: PROTAC activity at CBP/CRBN in AR positive human VCaP cells assessed as maximal protein degradation at 4.1 nM incubated for 4 hrs by Western blot analysis relative to control. The series is classed as cell-based.
The nature of series [8]: Reduction in c-Myc gene expression in AR positive human 22Rv1 cells assessed as reduction in mRNA level at 10 nM measured after 6 hrs by qRT-PCT analysis relative to control. The series is classed as functional, CWR22R.
The test system of series [9] is LNCaP. In words: Antiproliferative activity against AR positive human LNCaP cells assessed inhibition of cell growth measured after 4 days by CellTiter-Glo Luminescent cell viability assay. To be noted: 96 h. The series is classed as functional, cell-based.
Series [10] is described as follows: Half life in male ICR mouse at 3 mg/kg, po measured upto 24 hrs by LC-MS/MS analysis. The series is classed as ADME, organism-based. Conditions: in vivo.
The target in series [11] is T1, Protein cereblon/CREB-binding protein. Put plainly: In vivo PROTAC activity at p300/CRBN in human VCaP cells xenografted in CB17 SCID mouse assessed as reduction in CBP protein at 1 mg/kg, po measured after 3 hrs. The series is classed as functional, organism-based. On the set-up: scale not given: the % may be the effect or the level left.
For series [12], the system named is LNCaP. Put plainly: Potency index, ratio of GNE-049 IC50 to test compound IC50 for antiproliferative activity against AR positive human LNCaP cells assessed inhibition of cell growth measured after 4 days by CellTiter-Glo Luminescent cell viability assay. The series is classed as functional. Conditions: time 4 day. On the technique in general: ATP-based viability assays read luminescence as a measure of living cells.

Series [13] concerns the target T1, Protein cereblon/CREB-binding protein. Put plainly: PROTAC activity at CBP/CRBN in human 22Rv1 cells assessed as reduction in protein level at 100 nM incubated for 4 hrs by multiplexed quantitative proteomics analysis relative to control. On the set-up: scale not given: the % may be the effect or the level left. The series is classed as cell-based.
A further series concerns VCaP. Put plainly: Antitumor activity against human VCaP cells xenografted in CB17 SCID mouse model assessed as tumor growth inhibition at 0.3 mg/kg, po qd scheduled 5 days in a week measured on day 63. To be noted: 1512 h, time 63 day, read-out: TGI. The series is classed as functional.
The target in series [14] is Protein cereblon/Histone acetyltransferase p300 (Homo sapiens, UniProt Q09472+Q96SW2). Put plainly: PROTAC activity at p300/CRBN in human 22Rv1 cells assessed as maximal protein degradation at 1 uM incubated for 4 hrs by Western blot analysis relative to control. The series is classed as cell-based. (A western blot detects proteins with antibodies after separation by electrophoresis.)

Series [15] has as its system CWR22R. Put plainly: Potency index, ratio of ARV-110 IC50 to test compound IC50 for antiproliferative activity against AR positive human 22Rv1 cells assessed inhibition of cell growth measured after 4 days by CellTiter-Glo Luminescent cell viability assay. The series is classed as functional. To be noted: time 4 day.
In series [16] the test system is LNCaP. Put plainly: Potency index, ratio of ARV-110 IC50 to test compound IC50 for antiproliferative activity against AR positive human LNCaP cells assessed inhibition of cell growth measured after 4 days by CellTiter-Glo Luminescent cell viability assay. The series is classed as functional. Conditions: time 4 day.
The target in series [17] is T1, Protein cereblon/CREB-binding protein. In words: PROTAC activity at CBP/CRBN in AR positive human VCaP cells assessed as maximal protein degradation at 12.3 nM incubated for 4 hrs by Western blot analysis relative to control. The series is classed as cell-based.
Series [18] has the same target. Put plainly: PROTAC activity at CBP/CRBN in AR positive human VCaP cells assessed as maximal protein degradation at 333.3 nM incubated for 4 hrs by Western blot analysis relative to control. The series is classed as cell-based.
Series [19] is described as follows: AUC in male ICR mouse at 3 mg/kg, po measured upto 24 hrs by LC-MS/MS analysis. The series is classed as ADME, organism-based. To be noted: in vivo.
Series [20] has as its target T1, Protein cereblon/CREB-binding protein. Put plainly: In vivo PROTAC activity at CBP/CRBN in human VCaP cells xenografted in SCID mouse assessed as reduction in CBP protein at 1 mg/kg, po measured after 3 hrs. The series is classed as functional, organism-based. Details: scale not given: the % may be the effect or the level left.
The target is the same in series [21]. Put plainly: PROTAC activity at CBP/CRBN in human 22Rv1 cells assessed as maximal protein degradation at 1 uM incubated for 4 hrs by Western blot analysis relative to control. The series is classed as cell-based.
Series [22] can be described thus: Reduction in KLK3 gene expression in AR positive human LNCaP cells assessed as reduction in mRNA level at 10 nM measured after 6 hrs by qRT-PCT analysis relative to control. The series is classed as functional.

T1 sequence (Q92793 2-2442 limits assumed): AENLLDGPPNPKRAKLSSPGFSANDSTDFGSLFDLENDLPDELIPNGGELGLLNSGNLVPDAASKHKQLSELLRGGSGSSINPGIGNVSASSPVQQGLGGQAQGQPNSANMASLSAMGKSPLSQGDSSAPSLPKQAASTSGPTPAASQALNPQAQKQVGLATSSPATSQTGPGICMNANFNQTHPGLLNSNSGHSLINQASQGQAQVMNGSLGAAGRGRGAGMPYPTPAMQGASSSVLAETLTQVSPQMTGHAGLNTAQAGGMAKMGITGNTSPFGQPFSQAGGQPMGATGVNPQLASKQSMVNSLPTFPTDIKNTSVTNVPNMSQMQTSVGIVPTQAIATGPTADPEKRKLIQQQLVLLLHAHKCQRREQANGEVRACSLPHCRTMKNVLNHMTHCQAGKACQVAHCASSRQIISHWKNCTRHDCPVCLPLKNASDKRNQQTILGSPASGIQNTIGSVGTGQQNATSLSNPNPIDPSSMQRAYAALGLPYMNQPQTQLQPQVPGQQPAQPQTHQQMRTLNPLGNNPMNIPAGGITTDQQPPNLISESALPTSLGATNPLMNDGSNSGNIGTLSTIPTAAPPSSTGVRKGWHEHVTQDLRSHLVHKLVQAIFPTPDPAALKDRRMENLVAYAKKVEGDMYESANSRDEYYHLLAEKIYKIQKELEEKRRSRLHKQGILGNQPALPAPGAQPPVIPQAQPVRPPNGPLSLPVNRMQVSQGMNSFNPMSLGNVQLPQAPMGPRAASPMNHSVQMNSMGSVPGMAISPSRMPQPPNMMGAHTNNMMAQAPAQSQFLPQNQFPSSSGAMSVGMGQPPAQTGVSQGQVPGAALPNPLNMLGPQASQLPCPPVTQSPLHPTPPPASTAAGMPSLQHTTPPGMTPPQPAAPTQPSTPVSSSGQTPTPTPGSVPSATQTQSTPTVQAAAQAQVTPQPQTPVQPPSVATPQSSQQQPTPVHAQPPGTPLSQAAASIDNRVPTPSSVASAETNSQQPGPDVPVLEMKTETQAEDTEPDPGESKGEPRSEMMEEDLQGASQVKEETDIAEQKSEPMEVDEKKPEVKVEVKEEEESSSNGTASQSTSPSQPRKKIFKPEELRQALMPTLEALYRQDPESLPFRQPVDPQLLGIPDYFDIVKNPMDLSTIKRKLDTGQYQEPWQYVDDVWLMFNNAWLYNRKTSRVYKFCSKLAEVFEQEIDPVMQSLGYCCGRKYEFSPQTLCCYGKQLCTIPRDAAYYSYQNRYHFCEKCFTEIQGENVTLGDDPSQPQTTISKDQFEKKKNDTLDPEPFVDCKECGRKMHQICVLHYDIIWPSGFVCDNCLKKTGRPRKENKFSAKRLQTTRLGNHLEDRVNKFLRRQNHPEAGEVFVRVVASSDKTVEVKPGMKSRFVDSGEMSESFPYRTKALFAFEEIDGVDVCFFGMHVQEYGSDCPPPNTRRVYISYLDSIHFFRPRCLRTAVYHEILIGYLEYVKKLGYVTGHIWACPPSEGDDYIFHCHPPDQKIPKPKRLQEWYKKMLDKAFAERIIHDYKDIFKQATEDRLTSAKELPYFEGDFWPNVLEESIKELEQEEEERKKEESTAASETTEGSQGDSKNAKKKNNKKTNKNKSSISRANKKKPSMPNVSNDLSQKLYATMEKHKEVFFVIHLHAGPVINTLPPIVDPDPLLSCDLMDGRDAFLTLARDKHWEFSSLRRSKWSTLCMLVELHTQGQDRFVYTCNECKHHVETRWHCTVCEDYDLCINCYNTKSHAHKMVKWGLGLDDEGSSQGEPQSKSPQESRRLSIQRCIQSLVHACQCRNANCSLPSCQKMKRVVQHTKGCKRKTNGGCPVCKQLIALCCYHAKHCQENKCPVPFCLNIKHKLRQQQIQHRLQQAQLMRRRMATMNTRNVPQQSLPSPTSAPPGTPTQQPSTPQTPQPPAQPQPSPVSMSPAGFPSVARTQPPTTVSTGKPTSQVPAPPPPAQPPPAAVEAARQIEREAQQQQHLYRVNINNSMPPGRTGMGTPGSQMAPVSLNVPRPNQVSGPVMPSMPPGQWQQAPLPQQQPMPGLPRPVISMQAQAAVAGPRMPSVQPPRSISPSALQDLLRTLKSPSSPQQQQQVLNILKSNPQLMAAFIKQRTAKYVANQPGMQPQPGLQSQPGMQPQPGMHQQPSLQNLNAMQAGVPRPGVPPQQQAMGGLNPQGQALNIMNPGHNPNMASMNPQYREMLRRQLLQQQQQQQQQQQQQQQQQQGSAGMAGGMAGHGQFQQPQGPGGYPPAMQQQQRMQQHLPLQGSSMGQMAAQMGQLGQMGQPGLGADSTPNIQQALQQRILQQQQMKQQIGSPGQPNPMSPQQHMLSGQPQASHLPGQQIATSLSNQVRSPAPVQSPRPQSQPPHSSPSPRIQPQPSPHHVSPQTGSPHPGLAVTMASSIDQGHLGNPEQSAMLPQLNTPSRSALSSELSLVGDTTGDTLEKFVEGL
T1 sequence (Q96SW2 whole entry partner): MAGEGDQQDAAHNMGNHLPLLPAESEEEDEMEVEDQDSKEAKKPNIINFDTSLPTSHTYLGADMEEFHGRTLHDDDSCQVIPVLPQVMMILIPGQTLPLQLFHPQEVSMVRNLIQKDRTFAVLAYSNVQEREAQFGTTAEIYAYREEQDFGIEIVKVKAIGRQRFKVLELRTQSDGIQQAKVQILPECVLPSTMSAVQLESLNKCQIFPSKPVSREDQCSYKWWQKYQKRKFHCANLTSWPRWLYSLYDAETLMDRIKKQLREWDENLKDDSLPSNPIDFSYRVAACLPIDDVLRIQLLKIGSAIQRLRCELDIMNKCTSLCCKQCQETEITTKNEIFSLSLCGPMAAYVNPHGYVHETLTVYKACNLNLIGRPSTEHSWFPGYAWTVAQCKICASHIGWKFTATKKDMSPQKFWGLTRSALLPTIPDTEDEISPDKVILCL

`CC(=O)N1CCc2c(c(N3CCCc4cc(-c5cnn(C)c5)c(C(F)F)cc43)nn2[C@H]2CC[C@H](CN3CCN(c4ccc5c(c4)C(=O)N(C4CCC(=O)NC4=O)C5=O)CC3)CC2)C1` (stereo partly drawn): the inhibition result in the series on CWR22R [1] and with LNCaP [3] was “Dose-Dependent Effect” each time. Besides, the Activity is > 95% in series [2]; > 95% in series [5]; 97% in [7]; > 95% in series [11]; 50% in [13]; 98% in [17]. Further, the Activity in series [18] is 78%; in [20] it was > 95%. The inhibition (commonly how much of the control response was suppressed) at 0.01 µM in [4] was > 95%; in [8] it was > 95%; in [22] it was 70%. Also, the Drug uptake result in [6] was “Bld”. In the series on LNCaP [9], the IC50 (in general, the concentration that gives 50% inhibition) was 1.6 nM. Further, the half-life (in general, the time in which the quantity being followed falls by half) in series [10] is 2.6 h. For the same molecule, the “Ratio IC50” value in the series on LNCaP [12] is 100; in the series with CWR22R [15], >50; with LNCaP [16] it was >50. In the series with VCaP, the inhibition in vivo at 0.3 mg/kg was found to be 73%. The Emax (in general, the size of the effect at its maximum, as opposed to the concentration needed) worked out at 91% in series [14] and 93% in [21]. The AUC (usually the area under the concentration-time curve, a measure of exposure) at 24 h in [19] was determined as 15500 ng·h/mL.
